Assay results taken from ChEMBL document CHEMBL1201862, “PubChem BioAssay data set” (2004).
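48-hour exposure; five concentrations; linearly interpolated endpoints. GI50 marks 50% less growth.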 Calls of active or inactive are those of the source. Rule as the data show it: active = GI50 up to about 1.1 µM and inactive = higher.

What was measured:
Assay in all cases: inhibition of tumour cell growth, NCI panel, 48 h
UACC-62 = test system: UACC-62
DU-145 = test system: DU-145
SF-539 = test system: SF-539
SK-MEL-2 = test system: SK-MEL-2
OVCAR-4 = test system: OVCAR-4
OVCAR-5 = test system: OVCAR-5
UO-31 = test system: UO-31
IGROV-1 = test system: IGROV-1
SF-295 = test system: SF-295
HOP-92 = test system: HOP-92
LOX IMVI = test system: LOX IMVI
Malme-3M = test system: Malme-3M
K562 = test system: K562
HCC 2998 = test system: HCC 2998
PC-3 = test system: PC-3
SK-MEL-5 = test system: SK-MEL-5
SR = test system: SR
U-251 = test system: U-251
NCI-H460 = test system: NCI-H460
A498 = test system: A498

Structure (SMILES)	GI50 (UACC-62)	GI50 (DU-145)	GI50 (SF-539)	GI50 (SK-MEL-2)	GI50 (OVCAR-4)	GI50 (OVCAR-5)	GI50 (UO-31)	GI50 (IGROV-1)	GI50 (SF-295)	GI50 (HOP-92)	GI50 (LOX IMVI)	GI50 (Malme-3M)	GI50 (K562)	GI50 (HCC 2998)	GI50 (PC-3)	GI50 (SK-MEL-5)	GI50 (SR)	GI50 (U-251)	GI50 (NCI-H460)	GI50 (A498)
CCOC(=O)C(NC(=O)c1ccccc1)(N1CCOCC1)C(F)(F)F (configuration not stated)	> 100 µM (inactive)	> 100 µM (inactive)	> 100 µM (inactive)	> 100 µM (inactive)	> 100 µM (inactive)	> 100 µM (inactive)	> 100 µM (inactive)	> 100 µM (inactive)	> 100 µM (inactive)	> 100 µM (inactive)	> 100 µM (inactive)	> 100 µM (inactive)	> 100 µM (inactive)	> 100 µM (inactive)	> 100 µM (inactive)	> 100 µM (inactive)	> 100 µM (inactive)	> 100 µM (inactive)		
COc1cnc2oc3ccc(O)cc3c2c1-c1ccccc1		> 100 µM (inactive)	> 100 µM (inactive)	> 100 µM (inactive)	> 100 µM (inactive)	24.1 µM (inactive)	66.7 µM (inactive)		83 µM (inactive)	> 100 µM (inactive)	> 100 µM (inactive)	40 µM (inactive)	22.1 µM (inactive)	27.7 µM (inactive)	> 100 µM (inactive)	61.9 µM (inactive)		> 100 µM (inactive)	> 100 µM (inactive)	> 100 µM (inactive)
Cc1ccc(O)c(C(c2cccc(C(c3cc(C)ccc3O)c3cc(C)ccc3O)c2)c2cc(C)ccc2O)c1	1.99 µM (inactive)	1.44 µM (inactive)	1.75 µM (inactive)	2.1 µM (inactive)	2.22 µM (inactive)	1.69 µM (inactive)	1.91 µM (inactive)	1.56 µM (inactive)	2.24 µM (inactive)		1.54 µM (inactive)	1.87 µM (inactive)	1.81 µM (inactive)	1.86 µM (inactive)	1.77 µM (inactive)	2.44 µM (inactive)	2.73 µM (inactive)	1.77 µM (inactive)		1.53 µM (inactive)
C1COCCOP2(N3CC3)=NP(N3CC3)(=NP(N3CC3)(N3CC3)=N2)OCCOCCO1 (configuration not stated)	> 100 µM (inactive)	37.4 µM (inactive)	> 100 µM (inactive)		> 100 µM (inactive)	> 100 µM (inactive)	> 100 µM (inactive)	> 100 µM (inactive)	> 100 µM (inactive)		25.4 µM (inactive)	> 100 µM (inactive)	> 100 µM (inactive)		> 100 µM (inactive)	> 100 µM (inactive)	50.4 µM (inactive)	> 100 µM (inactive)		> 100 µM (inactive)
CC(=O)OC[C@@H](OC(C)=O)[C@H](OC(C)=O)[C@@H]1OC(C)(C)O[C@@H]1C1SCCCS1	> 100 µM (inactive)	> 100 µM (inactive)	> 100 µM (inactive)	> 100 µM (inactive)	> 100 µM (inactive)	> 100 µM (inactive)	> 100 µM (inactive)		> 100 µM (inactive)		> 100 µM (inactive)	> 100 µM (inactive)	> 100 µM (inactive)	> 100 µM (inactive)	> 100 µM (inactive)	> 100 µM (inactive)	> 100 µM (inactive)	> 100 µM (inactive)	> 100 µM (inactive)	> 100 µM (inactive)
CC(C)(C)OC(=O)Nc1cc(-c2ccccc2)co1	> 100 µM (inactive)	> 100 µM (inactive)	> 100 µM (inactive)	71.1 µM (inactive)	> 100 µM (inactive)	> 100 µM (inactive)	> 100 µM (inactive)	87.5 µM (inactive)	> 100 µM (inactive)	25.8 µM (inactive)	> 100 µM (inactive)		67 µM (inactive)	> 100 µM (inactive)	50.1 µM (inactive)	96.8 µM (inactive)		54.6 µM (inactive)		> 100 µM (inactive)
CCOC(=O)c1cc(C2CCN(CC(C)CC)C2=S)c(C(=O)/C=C(/C)N)[nH]1 (configuration not stated)	> 50 µM (inactive)	> 50 µM (inactive)	> 50 µM (inactive)	> 50 µM (inactive)		> 50 µM (inactive)	> 50 µM (inactive)	> 50 µM (inactive)	> 50 µM (inactive)		> 50 µM (inactive)	> 50 µM (inactive)	> 50 µM (inactive)		> 50 µM (inactive)	> 50 µM (inactive)	> 50 µM (inactive)	> 50 µM (inactive)	> 50 µM (inactive)	> 50 µM (inactive)
O=C(NCCn1ccnn1)Nc1ccccc1		> 100 µM (inactive)		> 100 µM (inactive)		> 100 µM (inactive)		> 100 µM (inactive)	> 100 µM (inactive)	> 100 µM (inactive)	> 100 µM (inactive)	> 100 µM (inactive)	> 100 µM (inactive)	> 100 µM (inactive)	> 100 µM (inactive)	> 100 µM (inactive)	> 100 µM (inactive)	> 100 µM (inactive)	> 100 µM (inactive)	
O=C(NN=C1NCCCN1)c1ccco1	> 100 µM (inactive)	> 100 µM (inactive)	> 100 µM (inactive)	> 100 µM (inactive)	> 100 µM (inactive)	> 100 µM (inactive)	> 100 µM (inactive)	> 100 µM (inactive)	> 100 µM (inactive)	> 100 µM (inactive)	> 100 µM (inactive)	> 100 µM (inactive)	> 100 µM (inactive)	> 100 µM (inactive)	> 100 µM (inactive)	> 100 µM (inactive)	> 100 µM (inactive)	> 100 µM (inactive)	> 100 µM (inactive)	
Cc1ccccc1[P+](C)(c1ccccc1C)c1ccccc1C	5.79 µM (inactive)	29.2 µM (inactive)	16.5 µM (inactive)	13.4 µM (inactive)	2.96 µM (inactive)	13.6 µM (inactive)	17.7 µM (inactive)	14.9 µM (inactive)		12.7 µM (inactive)	14.1 µM (inactive)	8.18 µM (inactive)		2.77 µM (inactive)	14.3 µM (inactive)	4.84 µM (inactive)		6.3 µM (inactive)	20 µM (inactive)	18.5 µM (inactive)
C#CCn1c(=O)c2cc(OC)c(OC)cc2n(CC#C)c1=O		> 10 µM (inactive)	> 10 µM (inactive)	> 10 µM (inactive)	> 10 µM (inactive)	> 10 µM (inactive)	> 10 µM (inactive)	> 10 µM (inactive)	> 10 µM (inactive)	> 10 µM (inactive)	> 10 µM (inactive)	> 10 µM (inactive)	> 10 µM (inactive)	> 10 µM (inactive)	> 10 µM (inactive)	> 10 µM (inactive)		> 10 µM (inactive)	> 10 µM (inactive)	> 10 µM (inactive)
Nc1nc(Cl)cc(OCC2(CO)CCCC2)n1		> 100 µM (inactive)	> 100 µM (inactive)		> 100 µM (inactive)	> 100 µM (inactive)		> 100 µM (inactive)	> 100 µM (inactive)	> 100 µM (inactive)	> 100 µM (inactive)	> 100 µM (inactive)	> 100 µM (inactive)	> 100 µM (inactive)	> 100 µM (inactive)	> 100 µM (inactive)		> 100 µM (inactive)	> 100 µM (inactive)	> 100 µM (inactive)
Cc1nc2ccc(S(=O)(=O)Nc3ccc(Cl)cc3)cc2c(=O)n1NC(=O)CNc1ccc(Cl)cc1	> 100 µM (inactive)	> 100 µM (inactive)	> 100 µM (inactive)	> 100 µM (inactive)	> 100 µM (inactive)	> 100 µM (inactive)	> 100 µM (inactive)	> 100 µM (inactive)	> 100 µM (inactive)	> 100 µM (inactive)	> 100 µM (inactive)	> 100 µM (inactive)	> 100 µM (inactive)	> 100 µM (inactive)	> 100 µM (inactive)		> 100 µM (inactive)	> 100 µM (inactive)	> 100 µM (inactive)	
NC(Cc1ccc(S(=O)(=O)O)cc1)C(=O)NC(Cc1ccc(S(=O)(=O)O)cc1)C(=O)O (configuration not stated)	> 100 µM (inactive)	> 100 µM (inactive)	> 100 µM (inactive)	> 100 µM (inactive)	> 100 µM (inactive)	> 100 µM (inactive)	> 100 µM (inactive)	> 100 µM (inactive)	> 100 µM (inactive)		> 100 µM (inactive)	> 100 µM (inactive)	0.0475 µM (active)	> 100 µM (inactive)	> 100 µM (inactive)	> 100 µM (inactive)		> 100 µM (inactive)	> 100 µM (inactive)	> 100 µM (inactive)
COc1ccc(S(=O)(=O)O)cc1-n1nc(C(=O)Nc2ccccc2)n[n+]1-c1cc(S(=O)(=O)[O-])ccc1OC	> 100 µM (inactive)	> 100 µM (inactive)	> 100 µM (inactive)		> 100 µM (inactive)	> 100 µM (inactive)	> 100 µM (inactive)	> 100 µM (inactive)	> 100 µM (inactive)			> 100 µM (inactive)	> 100 µM (inactive)	> 100 µM (inactive)	> 100 µM (inactive)	> 100 µM (inactive)	> 100 µM (inactive)	> 100 µM (inactive)	> 100 µM (inactive)	> 100 µM (inactive)
Cc1cc(S(=O)(=O)Nc2nc(N)n(-c3ccccn3)n2)c(S)cc1Cl	> 100 µM (inactive)	> 100 µM (inactive)	> 100 µM (inactive)	> 100 µM (inactive)	> 100 µM (inactive)	> 100 µM (inactive)	> 100 µM (inactive)	> 100 µM (inactive)			> 100 µM (inactive)	> 100 µM (inactive)	> 100 µM (inactive)	> 100 µM (inactive)	> 100 µM (inactive)	> 100 µM (inactive)	> 100 µM (inactive)	> 100 µM (inactive)	> 100 µM (inactive)	> 100 µM (inactive)
